{"source": "patent US20140274881A1", "about": "“BIODEGRADABLE THERAPEUTIC NANOPARTICLES CONTAINING AN ANTIMICROBIAL AGENT” (CAROLINAS HEALTHCARE SYSTEM, priority 2008, published 2014)", "key": {"[1]": {"assay": "In vitro drug release by dialysis method under sink conditions", "assay_type": "physicochemical", "details": "nafcillin-PBS solution without polymer nanoparticles in dialysis bag, 37° C.", "source_text": "A dialysis method was used in the measurement of in vitro drug release. Drug release studies were done under sink conditions; the volume of the buffer was kept large (outer sink) compared to the volume of drug-loaded nanoparticles suspension in the dialysis bag. The (theoretical) situation of infinite dilution is known as a perfect sink; however, even though perfect sink conditions are never attainable in practice, they are the only situation in which a true release profile can be measured. For a given matrix volume, an increase in liquid volume or volume ratio will promote drug release due to the lower drug concentrations in the medium. The system developed was continuously agitated, resulting in the faster diffusion of drug through the dialysis membrane to the outer sink. FIG. 9A is a plot of cumulative drug release (%) versus time in hours, for release of nafcillin from nafcillin-PBS solution loaded in a dialysis bag with a molecular weight cut-off of 6 kDa at 37° C. FIG. 9B is a plot of cumulative drug release (%) versus time in hours for release of nafcillin from nafcillin-PBS solution loaded in a dialysis bag with a molecular weight cut-off of 12-14 kDa at 37° C. The release of nafcillin from nafcillin-PBS solution without polymer nanoparticles was rapid, since 97% of the drug was released within the first nine (9) hours. […]"}, "[2]": {"tested_on": "intracellular S. aureus", "assay": "Viability of intracellular S. aureus in infected osteoblasts treated with nanoparticles", "assay_type": "cell-based, Staphylococcus aureus", "details": "nafcillin alone, no nanoparticles", "protocol": "The viability of intracellular S. aureus following treatment with nanoparticles was determined. S. aureus was allowed to infect cultured primary mouse osteoblasts as described herein, followed by removal and killing of all remaining extracellular bacteria in culture. […] None of the nanoparticle preparations had any effect on osteoblast viability. All loaded formulations of particles caused a significant decrease in the viability of intracellular S. aureus inside infected osteoblasts at both 24 and 48 hours.\nFIG. 11 is a bar graph showing viability of intracellular S. aureus in osteoblasts treated with nanoparticles or nanoparticles loaded with nafcillin. Primary mouse osteoblasts were infected intracellularly with S. aureus and were subsequently treated with unloaded nanoparticles (G1 and G2) or nanoparticles loaded with nafcillin (G1.1, 1.2, 2.1 and 2.2) for 1 (0 hour), 24 and 48 hours. Osteoblasts were subsequently lysed following these time intervals with a solution containing 0.1% triton X-100, and serial dilutions of the lysates were plated on tryptic soy agar (TSA). Following an overnight incubation at 37° C., numbers of viable bacteria were enumerated, *, P<0.05 versus S. aureus-treated osteoblasts at the same time point. […]\nFollowing resuspension in OBGM, bacterial cell density is determined via spectrophotometric analysis. […]"}}, "data": [{"smiles": "CCOc1ccc2ccccc2c1C(=O)N[C@@H]1C(=O)N2[C@@H]1SC(C)(C)[C@@H]2C(=O)O", "note": "[nafcillin, Nafcillin]", "values": [{"measurement": "cumulative drug release within the first nine (9) hours", "setting": "[1]", "value": 97, "unit": "%"}, {"measurement": "viability of intracellular S. aureus, compared with untreated infected osteoblasts", "setting": "[2]", "value": "indistinguishable from untreated S. aureus-infected osteoblasts"}]}]}
